The values that follow come from patent US6818656B2, “Method and composition for treatment of irritable bowel disease” (University of Florida, priority 2001, dated 2004).

Each structure is given as a SMILES string. Read-outs that look alike come from different tables or passages of the source.

Series [1] deals with stress-induced fecal output. The series can be described thus: Psychological stress-induced (water avoidance) IBS model, SC administration. In kind it is in vivo. The conditions noted are these: for Stool Output: 6-h collection. An excerpt: (§1) For drug preparation and administration, the compounds were put into solution with sterile normal saline and sonicated briefly, if necessary. The drugs were made up at concentrations such that the rats received the drugs PO or SC at the rate of 1 cc per kilogram. Mice received the CHX(3,4,3)-trans IP at 1 cc per 100 grams. The solutions were made fresh the day of the study. Control animals received an equivalent amount of saline PO or SC.
Animal care and experimental procedures were approved by the Institutional Animal Care and Use Committee. Male Sprague-Dawley rats (250-350 g, Harlan Sprague-Dawley, Indianapolis, Ind.) were housed in polycarbonate cages in a temperature- and humidity-controlled room with a 12-hour light/dark cycle. The experiments were performed at the same time of the day to decrease diurnal variability. A typical experiment involved 20 rats: 5 saline-treated controls and 5 pretreated with polyamine analogues at each of three doses as either a SC injection or a PO gavage. The rats in the SC studies and in one set of experiments involving PO administration were allowed ad libitum access to a standard rodent diet and tap water until the morning of the experiment. Stress was initiated 30 minutes post drug as described below. In another set of experiments involving PO administration, the animals were fasted overnight but were allowed free access to water. […] In a final experiment, non-stressed control rats were injected with saline SC and housed in individual polycarbonate cages. The fecal output (number of pellets) of the stressed and unstressed animals was recorded at 30-min intervals for a 6-h period, during which they received no food or water.
(§2) To initiate the stress, water was added to each cage to a depth of at least 4.5 cm, i.e., within 0.5 cm of the top of the Pyrex dish. To avoid contact with water, the rats stand on the glass dish for the 6 h of the study. Stool output was expressed as the total number of fecal pellets excreted over the 6-h collection period. Percent reduction was calculated by dividing the mean value from the treated animals (T) by the mean value from the control animals (C), subtracting the resulting quotient from 1.0, and multiplying by 100 [i.e., (1.0−T/C)×100].
(§3) A one-tailed t-test assuming unequal variance was performed on the stool output data of the treated vs control (0 mg/kg) animals for each compound. A value of P<0.05 was considered significant.
The psychological stress-induced IBS model involves subjecting the rats to an aversive stimulus (water) and observing the increase in fecal output over a period of time. […] Control rats received an equivalent amount of saline SC.

The test system of series [2] is stress-induced fecal output. Kind of series: Psychological stress-induced (water avoidance) IBS model, PO administration by gavage. The conditions noted are these: for oral activity against stress-induced fecal output (in words): PO gavage, non-fasted rats, 11.6-115.6 μmol/kg. The series is classed as in vivo, rat.
From the text: as §1
Animal care and experimental procedures were approved by the Institutional Animal Care and Use Committee. Male Sprague-Dawley rats (250-350 g, Harlan Sprague-Dawley, Indianapolis, Ind.) were housed in polycarbonate cages in a temperature- and humidity-controlled room with a 12-hour light/dark cycle. The experiments were performed at the same time of the day to decrease diurnal variability. A typical experiment involved 20 rats: 5 saline-treated controls and 5 pretreated with polyamine analogues at each of three doses as either a SC injection or a PO gavage. The rats in the SC studies and in one set of experiments involving PO administration were allowed ad libitum access to a standard rodent diet and tap water until the morning of the experiment. Stress was initiated 30 minutes post drug as described below. In another set of experiments involving PO administration, the animals were fasted overnight but were allowed free access to water. The animals were then stressed from ½ h to 2 h post-drug (data not shown). In a final experiment, non-stressed control rats were injected with saline SC and housed in individual polycarbonate cages. The fecal output (number of pellets) of the stressed and unstressed animals was recorded at 30-min intervals for a 6-h period, during which they received no food or water.
as §2, with “Once the drug had been administered, the animals were housed individually in polycarbonate cages containing a clear 70×50 mm Pyrex crystallization dish (Fisher, Pittsburgh, Pa.) inverted in the center and held in place with vacuum grease. To initiate” for “To initiate”
as §3
Because an orally active compound would be desirable for the treatment of IBS, selected analogues utilizing oral administration in the same model were assessed. In the initial studies animals were utilized that had been fasted overnight. Rodents were then given the drug of interest PO by gavage and stressed ½ h, 1 h, or 2 h post-drug. Unfortunately, because of the low baseline stool output in fasted control rats, the reductions in fecal output observed upon drug administration cannot be reported with any confidence (data not shown). Thereafter, only non-fasted animals were employed and were given the agents by gavage at doses of 11.6, 23.2, 57.8, or 115.6:mol/kg 30 minutes before initiating the stress. […] At doses of 11.6 and 23.2:mol/kg, CHX(3,4,3)-trans reduced stooling by about 80% (P=0.001 and <0.001, respectively). DEHSPM was effective at a dose of […]:mol/kg (40% diminution of fecal output; P<0.01), and DE(5,4,5) was active at doses of 23.2 and 57.8:mol/kg (55 and 73% reductions in fecal output, respectively; P<0.001 for both doses).

Series [3] concerns castor oil-induced diarrhea. The settings on record: cited from earlier work; for activity in castor oil-induced diarrhea model (in words): rodent.
Series [4] concerns constipation-predominant IBS. The conditions noted are these: eight patients, 16 mg three times a week, eight weeks; cited from earlier work.
The nature of series [5]: Acute toxicity assessment, single intraperitoneal injection. The conditions noted are these: toxic doses, mice. In kind it is in vivo. The procedure: For the acute toxicity assessment the CHX(3,4,3)-trans was administered to female CD-1 mice (Charles River, Wilmington, Mass.) as a single intraperitoneal (IP) injection. The animals were carefully observed post-dosing and were scored 2 h after administration of the drug.
as §1

The conditions of series [6]: cited from earlier work.
A further series has as its system diarrhea. The settings on record: animal models and clinic; cited from earlier work.
For series [7] the following is noted: compared with DEHSPM; cited from earlier work.
For series [8] the following is noted: mice; N-de-ethylated metabolite of DEHSPM; cited from earlier work.
For series [9] the following is noted: dog; relative to 2-3 weeks in mice; cited from earlier work.
The mark [10] stands for this setting: 2.3 μmol/kg SC, stress 30 min post drug.
Setting [11] is: Rattus norvegicus, 57.8 μmol/kg SC, vs stressed controls, 6 h, read-out: % Reduction.
Setting [12] is: dogs, 4.3 mg/kg/day for 14 days or 2.15 mg/kg/d for 28 days.

`CCNCCCNCCCNCCCNCC` [Compound 1, N^1,N^11-diethylnorspermine]: the “Stool Output” value in series [1] (setting [10]) is listed as 17.4 ± 5.1 number of fecal pellets; in series [1] (11.6 μmol/kg SC) it was 15.2 ± 4.5 number of fecal pellets; in series [1] (57.8 μmol/kg SC), 13.4 ± 5.9 number of fecal pellets. The “activity at diminishing stress-induced fecal output (in words)” value in series [1] (SC administration to stressed rats, listed as DENSPM) is reported as “completely ineffective”. Besides, in series [2], the “oral activity against stress-induced fecal output (in words)” value is “only CHX(3,4,3)-trans, DEHSPM, and DE(5,4,5) showed any activity at all”. In [3] (listed as DENSPM), the “activity in castor oil-induced diarrhea model (in words)” value is “ineffective in reducing stooling”.
As to `C=C1CCC2(O)C3Cc4ccc(OC5OC(C(=O)O)C(O)C(O)C5O)c5c4C2(CCN3CC2CC2)C1O5` (stereo not drawn) [Nalmefene glucuronide], in series [4], the “abdominal pain or bloating” value was “did not reduce abdominal pain or bloating”; the “transit time and stool frequency” value was “decreased transit time and increased stool frequency”.
For `CCNCCCCNCCCCNCCCCNCC` [Compound 13, N^1,N^14-diethylhomospermine], the “Stool Output” value is reported as 2.1 ± 2.1 number of fecal pellets in [1] (11.6 μmol/kg SC); 0 ± 0 number of fecal pellets in series [1] (57.8 μmol/kg SC); 10.6 ± 1.8 number of fecal pellets in series [2] (115.6 μmol/kg PO, 6-hr collection). In addition, in series [1] (Rattus norvegicus, 11.6 μmol/kg SC, vs stressed controls, 6 h, read-out: % Reduction), the inhibition in vivo at 11.6 µmol/kg was 89%. For the same molecule, the inhibition in vivo at 57.8 µmol/kg in [1] (setting [11]) amounted to 100%. Besides, the “% Reduction” value in [2] (115.6 μmol/kg PO, vs stressed controls, 6 hr) stood at 40%. In series [2] (15.6 :mol/kg PO), the “diminution of fecal output” value turned out to be 40%. For the same molecule, the “signs of acute toxicity in mice” value in series [5] is listed as “generalized depression with respiratory failure”. Besides, the “time at which arrhythmia was apparent in 6-lead EKG” value in series [6] (SC, dogs, 2 mg/kg daily) was “as early as three days”. Moreover, in series [6] (SC, three dogs, 2 mg/kg daily for 11-17 days), the cardiac effect entry was “ventricular bigeminies”. Further, in the series on diarrhea, the “antidiarrheal activity (in words)” value was “very potent antidiarrheal”.
As to `CC(C)CCNCCCNCCCCNCCCNCCC(C)C` [Compound 9], the “Stool Output” value in series [1] (setting [10]) is 18.2 ± 2.8 number of fecal pellets; in series [1] (11.6 μmol/kg SC), 14.6 ± 4.5 number of fecal pellets; in series [1] (57.8 μmol/kg SC) it was 0 ± 0 number of fecal pellets. The “toxic effects observed in stressed rats” value in series [1] (57.8 μmol/kg SC) is reported as “^hDue to severe CNS toxicity, 3 of the 5 rats were removed after 4-4.5 h; neither of the remaining 2 rats had any stool output for the remainder of the study”; in series [1] (57.8 μmol/kg SC, listed as DIPESPM), “severe neurotoxicity”. The inhibition in vivo at 57.8 µmol/kg in [1] (setting [11]) was found to be 100%. In addition, in [3] (doses equivalent to a 5 mg/kg dose of DEHSPM), the “neurotoxicity in rats at subtherapeutic doses” value was “Signs of neurotoxicity”.
In the case of `CCNCCCNCCCCNCCCNCC` [Compound 3, N^1,N^12 diethylspermine], the “Stool Output” value in [1] (23.2 μmol/kg SC) is on record as 12.5 ± 2.9 number of fecal pellets; in series [1] (35.4 μmol/kg SC), 9.0 ± 6.3 number of fecal pellets; in series [1] (61 μmol/kg SC) it was 2.8 ± 2.7 number of fecal pellets. Moreover, the inhibition in vivo at 23.2 µmol/kg in series [1] (Rattus norvegicus, 23.2 μmol/kg SC, vs stressed controls, 6 h, read-out: % Reduction) was 35%. For the same molecule, in series [1] (Rattus norvegicus, 35.4 μmol/kg SC, vs stressed controls, 6 h, read-out: % Reduction), the inhibition in vivo at 35.4 µmol/kg came out at 53%. In [1] (Rattus norvegicus, 61 μmol/kg SC, vs stressed controls, 6 h, read-out: % Reduction), the inhibition in vivo at 61 µmol/kg is 90%. The “oral activity against stress-induced fecal output (in words)” value in [2] is “only CHX(3,4,3)-trans, DEHSPM, and DE(5,4,5) showed any activity at all”. The “signs of acute toxicity in mice” value in [5] is “generalized depression with respiratory failure”.
In the case of `CCNCC[C@@H](O)CNCCCCNC[C@H](O)CCNCC` [(HO)2DEHSPM, (3R, 12R)-N^1,N^14-diethyl-3,12-dihydroxyhomospermine], the “activity in castor oil-induced diarrhea model (in words)” value in series [3] is “considerably decreased stool output”. Besides, in series [6] (setting [12]), the “onset of exocrine pancreatic insufficiency post-final dose” value is recorded as “approximately 40 days” and the pancreatic toxicity result is “exocrine pancreatic insufficiency developed”. Also, in [6] (treated dogs), the “induction of cardiac bigeminies” value is listed as “minimal”. For the same molecule, the “residence time in most mouse tissues” value in series [7] is listed as “shorter than that of DEHSPM”. For the same molecule, in the series with diarrhea, the “antidiarrheal activity (in words)” value was “as effective an antidiarrheal as DEHSPM”.
For `NCCCCNCCCCNCCCCN` [HSPM, homospermine], the half-life was 2-3 weeks in series [8] and “even longer” in [9].
